Experimental data: patent US12116356B2, “N-heterocyclic five-membered ring-containing capsid protein assembly inhibitor, pharmaceutical composition thereof, and use thereof” (CHIA TAI TIANQING PHARMACEUTICAL GROUP CO., LTD., priority 2018, dated 2024)

What was measured:
[1] = In vitro cytotoxicity (CCK-8) in HepAD38 cells; type: cell-based; conditions: human
Description: (§1) A bottle of HepG2.2.15 or HepAD38 cells in good exponential growth state was taken, washed once by adding 5 mL PBS, and then thereto was added 3 mL trypsin. The sample was digested in a cell culture incubator, and taken out from time to time and observed under a microscope. When the cells just fell off, 1 mL trypsin was discarded. The residual liquid was placed in a cell culture incubator at 37° C. and digested for 8-15 min. The cells were taken out and observed under a microscope (whether the cells were individually round and there was no adhesion between the cells). 5 mL MEM medium was added for cell resuspension. The cells were then subjected to cell counting with a cell counter, diluted with a complete medium, and adjusted to a cell density of 2*10^5 cells/mL. Then the cells were seeded at 100 μL/well in a 96-well plate with a multi-channel pipette (the 96-well plate was coated with 50 μg/mL Collagen I solution in advance), and cultured in a constant temperature CO2 incubator for 24 h. The cells were treated by drug administration, and fresh medium containing the compound was used to replace the spent medium every 3 days. To control wells was added a drug-free medium containing 0.5% DMSO, and a control well containing a common medium was set up. 6 days after the administration, CCK-8 was added at 10 μL/well. After 1 to 2 hours, the absorbance was detected with microplate reader at 450 nm, and the inhibition rate and the CC50 were calculated.

[2] = In vitro cytotoxicity (CCK-8) in HepG2.2.15 cells; type: cell-based; conditions: human
Description: as §1

CYP 2C9 = CYP 2C9 (Homo sapiens (Human), UniProt P11712); assay: CYP450 enzyme inhibition study (liver microsomes, subtype IC50); type: in vitro ADME; conditions: 30 minutes, read-out: Subtypes IC50 2C9
Description: (§2) 500 μL of a final incubation system contains 50 μL of liver microsomes (protein concentration: 0.2 mg/mL), 1 μL of mixed CYP450 specific substrates (CYP1A2, CYP 2B6, CYP 2C9, CYP2C19, CYP 2D6, and CYP 3A4), 398 μL PBS buffer (PH7.4), 1 μL specific positive inhibitor (positive control group) or the test compound (formulated with acetonitrile), and 50 μL NADPH+MgCl2. Duplicate incubation systems of 0.5 mL each were formulated for each CYP450 subtype. A total volume of 450 μL of a uniformly mixed solution of the substrate and the enzyme was formulated in each tube, and the solution and NADPH were pre-incubated at 37° C. for 5 minutes, respectively. Then 50 μL of the mixed solution of NADPH+MgCl2 was added for reaction. 50 μL of the reaction solution was taken out at 30 minutes, and the reaction was terminated with 300 μL of ice acetonitrile containing an internal standard. In addition, two control groups of 500 μL each without NADPH were prepared in parallel as a negative control group.
(§3) Sample pre-treatment: To 50 μL of the incubated sample was added 300 μL of ice acetonitrile containing an internal standard, and then precipitated. After vortexing for 5 minutes, the sample was centrifugated (12000 rpm, 4° C.) for 10 minutes. 75 μL of the supernatant was pipetted, and 75 μL of ultrapure water was added thereto for dilution and mixed uniformly. 1 μL of the resulting solution was injected for analysis.

CYP 2D6 = CYP 2D6 (Homo sapiens (Human), UniProt P10635); assay: as above; type: in vitro ADME; conditions: 30 minutes, read-out: Subtypes IC50 2D6
Description: as §2, §3

[3] = Plasma protein binding assay (equilibrium dialysis), mouse plasma; type: in vitro ADME
Description: Formulation of plasma sample: 495 μL of blank plasmas of the corresponding species (mouse, rat, dog, monkey, and human) were drawn respectively, and thereto was added 5 μL of the corresponding test compound solution or positive control to give plasma sample solutions having a plasma drug concentration of the compound of 1 μM, and 10 μM, respectively (formulated with acetonitrile).
The pre-treated dialysis membrane was placed in a high-throughput equilibrium dialysis device, and 100 μL of the plasma sample solution and PBS buffer solution were drawn and added respectively to both sides of the dialysis membrane (sample side and buffer side) (n=3). After the equilibration device was sealed with a film, it was incubated at 37° C. overnight (100 rpm). After dialysis equilibrium was reached, 50 μL samples were drawn from the sample side and the buffer side, respectively, and the reaction was terminated by adding ice acetonitrile containing an internal standard.
as §3, with “plasma-side” for “incubated”, “450” for “300”, “analysis. To 50 μL of the PBS-side sample was added 250 μL of ice acetonitrile with an internal standard, and precipitated. After vortexing for 5 min, the sample was centrifugated (12000 rpm, 4° C.) for 10 min. 75 μL of the supernatant was pipetted, and 75 μL of ultrapure water was added thereto for dilution and mixed uniformly. 2 μL of the resulting solution was injected for analysis.” for “analysis.”

[4] = Stability of mouse liver microsomes in vitro; type: in vitro ADME
Description: 300 μL of a final incubation system contains 30 μL of liver microsomes (protein concentration: 0.15 mg/mL), 30 μL NADPH+MgCl2, 3 μL substrate (formulated with acetonitrile), and 237 μL PBS buffer. Duplicate incubation systems of 0.3 mL each were formulated for each species. A total volume of 270 μL of a uniformly mixed solution of the substrate and the enzyme was formulated in each tube, the solution and NADPH were pre-incubated at 37° C. for 5 minutes, respectively. Then 30 μL of the mixed solution of NADPH+MgCl2 was added for reaction. 50 μL of the reaction solution was taken out at 0, 10, 30, and 60 mins, and the reaction was terminated with 300 μL of ice acetonitrile containing an internal standard.
Sample pre-treatment: To 50 μL of the incubated sample was added 300 μL of ice acetonitrile containing diazepam as an internal standard and then precipitated. After vortexing for 5 minutes, the sample was centrifugated (12000 rpm, 4° C.) for 10 minutes. 75 μL of the supernatant was pipetted into a 96-well plate, and then diluted with 75 μL ultrapure water and mixed uniformly. 0.5 μL of the resulting solution was injected and analyzed by LC-MS/MS.

[5] = system: HBV (recombinant plasmid pHBV 1.3); assay: Antiviral effect evaluation in HDI mouse model; type: in vivo, C57BL/6 mice; conditions: 30 mg/kg intragastric once daily for 6 days
Description: 6-8 week old male C57BL/6 mice was used, and each mouse was injected with purified recombinant plasmid pHBV 1.3 (10 μg) dissolved in PBS equivalent to a volume of about 10% of its body weight through the tail vein within 3-8 s. Blood was collected from the orbits of the mice at 24 hours after the plasmid injection to detect serum HBV DNA. The model mice having uniform serum DNA were selected and divided into: a blank control group, a vehicle control group, and a test substance group. Mice in each group were continuously administered intragastrically once daily for 6 days at a dose of 30 mg/kg. The mouse serum was taken on day 1, 3, 5, and 7 after the injection, and the mice were sacrificed on day 7 to take liver tissue samples. The HBV DNA copy numbers in serum and liver of the mice were detected by fluorescent quantitative PCR method.

Chain of CYP 2C9 (P11712 whole entry): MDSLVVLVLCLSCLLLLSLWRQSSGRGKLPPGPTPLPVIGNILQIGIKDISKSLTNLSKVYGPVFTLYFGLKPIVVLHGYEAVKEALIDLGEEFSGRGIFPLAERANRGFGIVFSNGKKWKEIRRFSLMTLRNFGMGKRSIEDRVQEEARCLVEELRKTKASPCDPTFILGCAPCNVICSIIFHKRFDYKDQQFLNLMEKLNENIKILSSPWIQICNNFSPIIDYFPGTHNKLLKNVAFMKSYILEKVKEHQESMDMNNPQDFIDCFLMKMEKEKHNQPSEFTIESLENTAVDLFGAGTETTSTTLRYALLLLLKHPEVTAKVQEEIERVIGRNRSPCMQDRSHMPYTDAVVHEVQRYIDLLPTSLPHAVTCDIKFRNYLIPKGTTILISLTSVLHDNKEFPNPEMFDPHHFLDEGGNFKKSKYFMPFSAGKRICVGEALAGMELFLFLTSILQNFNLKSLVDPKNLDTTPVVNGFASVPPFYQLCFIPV
Chain of CYP 2D6 (P10635 whole entry): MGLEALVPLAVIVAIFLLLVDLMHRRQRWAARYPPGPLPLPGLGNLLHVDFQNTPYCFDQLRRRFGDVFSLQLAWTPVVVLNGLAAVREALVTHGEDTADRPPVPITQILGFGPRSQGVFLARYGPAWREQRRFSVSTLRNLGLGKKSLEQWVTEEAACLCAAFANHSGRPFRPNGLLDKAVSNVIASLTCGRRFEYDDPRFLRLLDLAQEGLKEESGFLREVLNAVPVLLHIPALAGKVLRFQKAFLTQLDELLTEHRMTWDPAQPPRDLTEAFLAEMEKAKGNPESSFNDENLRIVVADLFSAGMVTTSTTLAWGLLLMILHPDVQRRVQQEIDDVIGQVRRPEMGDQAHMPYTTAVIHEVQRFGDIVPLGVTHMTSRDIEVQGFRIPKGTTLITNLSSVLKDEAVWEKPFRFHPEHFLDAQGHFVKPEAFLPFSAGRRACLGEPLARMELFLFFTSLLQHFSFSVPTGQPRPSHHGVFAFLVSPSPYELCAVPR

Structure (SMILES)	CC50 at 6 days [1]	CC50 at 6 days [2]	IC50 (CYP 2C9)	IC50 (CYP 2D6)	Binding rate ([3]; 1 μM)	Binding rate ([3]; 10 μM)	Remaining (%) at 60 min [4]	Reduction levels (log10) of HBV DNA in semm on day 5 [5]
Cc1c(C(=O)Nc2ccc(F)c(C#N)c2)c(C)n(C)c1C(=O)C(=O)N[C@@H](C)C(F)(F)F [Example 12]	> 100 µM	> 100 µM	79.7 µM	224 µM	75.3%	74.5%	67.1%	2.17 log10
Cc1c(C(=O)Nc2ccc(F)c(C#N)c2)c(C)n(C)c1C(=O)C(=O)NC1(C(F)(F)F)COC1 [Example 25, N-(3-cyano-4-fluorophenyl)-1,2,4-trimethyl-5-(2-oxo-2-((3-(trifluoromethyl)oxetan-3-yl)amino)acetyl)-1H-pyrrole-3-carboxamide]	> 100 µM	> 100 µM	16.6 µM	120 µM	76.5%	74.7%	50.8%	1.73 log10
